Results reported in ChEMBL document CHEMBL3621121, “Modeling, synthesis and NMR characterization of novel chimera compounds targeting STAT3” (Medchemcomm, 2014).

How the values were obtained:
[1] = target: Signal transducer and activator of transcription 3 (Homo sapiens) (UniProt P40763); test: Inhibition of STAT3 in human HCT116 cells at 10 uM after 24 hrs by firefly and renilla dual luciferase assay; type: cell-based; conditions: HCT-116
[2] = target: Signal transducer and activator of transcription 3 (Homo sapiens) (UniProt P40763); test: Inhibition of STAT3 in human HCT116 cells at 50 uM after 24 hrs by firefly and renilla dual luciferase assay; type: cell-based; conditions: HCT-116
[3] = target: Signal transducer and activator of transcription 3 (Homo sapiens) (UniProt P40763); test: Inhibition of SH2 domain of STAT3 (unknown origin) using (FITC)-GpYLPQTV after 90 mins by AlphaScreen bead-based nonradioactive assay

Signal transducer and activator of transcription 3 (Homo sapiens), sequence (P40763 whole entry, the tested form may be a part): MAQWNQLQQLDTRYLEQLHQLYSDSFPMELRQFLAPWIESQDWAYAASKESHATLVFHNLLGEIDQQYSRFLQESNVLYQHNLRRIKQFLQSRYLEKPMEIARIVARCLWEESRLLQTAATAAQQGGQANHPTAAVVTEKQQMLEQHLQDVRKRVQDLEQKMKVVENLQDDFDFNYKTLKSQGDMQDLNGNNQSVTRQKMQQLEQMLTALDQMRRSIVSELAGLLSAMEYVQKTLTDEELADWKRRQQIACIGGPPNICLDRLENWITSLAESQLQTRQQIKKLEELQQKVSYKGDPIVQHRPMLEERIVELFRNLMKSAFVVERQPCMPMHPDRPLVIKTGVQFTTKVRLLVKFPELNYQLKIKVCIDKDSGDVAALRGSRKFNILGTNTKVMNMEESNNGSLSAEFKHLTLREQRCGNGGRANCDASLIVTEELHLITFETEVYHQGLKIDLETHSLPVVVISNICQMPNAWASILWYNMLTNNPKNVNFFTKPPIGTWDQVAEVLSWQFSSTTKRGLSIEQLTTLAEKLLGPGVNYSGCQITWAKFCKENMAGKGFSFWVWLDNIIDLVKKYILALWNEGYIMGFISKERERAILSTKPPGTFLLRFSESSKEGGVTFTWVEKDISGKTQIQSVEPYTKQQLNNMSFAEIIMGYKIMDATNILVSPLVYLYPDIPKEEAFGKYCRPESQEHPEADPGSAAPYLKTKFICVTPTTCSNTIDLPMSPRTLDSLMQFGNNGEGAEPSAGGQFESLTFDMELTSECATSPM

Structure (SMILES)	inhibition [1] [%]	inhibition [2] [%]	inhibition [3] [%]
O=C(Nc1ccc(C(F)(F)F)cc1)C1Cc2cc(=O)[nH]nc2-c2ccccc21 (stereo in doubt; (+)-3a)	-2	24	–
O=C1CC2CC(C(=O)Nc3ccc(C(F)(F)F)cc3)c3ccccc3C2=NN1 (single isomer, unassigned; (+)-2a)	-8	12	–
O=C1CC2CC(C(=O)Nc3ccc(C(F)(F)F)cc3)c3ccccc3C2=NN1 (single isomer, unassigned; (-)-1)	9	14	–
C[C@H]1COC2=C1C(=O)C(=O)c1c2ccc2c1CCCC2(C)C	78	85	–
O=C1CC2CC(C(=O)Nc3ccc(C(F)(F)F)cc3)c3ccccc3C2=NN1 (racemic; 1)	-3	6	–
O=C1CC2CC(C(=O)Nc3ccc(C(F)(F)F)cc3)c3ccccc3C2=NN1 (racemic; 2)	-6	3	–
O=C1CC2CC(C(=O)Nc3ccc(C(F)(F)F)cc3)c3ccccc3C2=NN1 (single isomer, unassigned; (+)-1)	9	35	< 5
O=C1CC2CC(C(=O)Nc3ccc(C(F)(F)F)cc3)c3ccccc3C2=NN1 (single isomer, unassigned; (-)-2b)	1	16	–
O=C(Nc1ccc(C(F)(F)F)cc1)C1Cc2cc(=O)[nH]nc2-c2ccccc21 (single isomer, unassigned; (-))	2	30	–
O=C(Nc1ccc(C(F)(F)F)cc1)C1Cc2cc(=O)[nH]nc2-c2ccccc21 (racemic)	2	7	–
